In patent US20240299591A1, “Antimicrobial Peptides and Their Use” (priority 2021, published 2024):
≈ marks a conversion by molar mass, not a printed value. Where a SMILES comes first, the peptide text is derived from it.

Assays:
[1] = tested on: Aspergillus fumigatus; assay type: cell-based
[2] = tested on: Fusarium oxysporum; assay type: cell-based; settings: 24 h
[3] = tested on: S. aureus; assay type: cell-based, Staphylococcus aureus
Method: Bacteria strains used were grown on Lysogeny Broth (LB) agar at 37° C. for 1 day, and were harvest using sterile inoculation loop by taking a single colony and resuspending in PBST. The concentration of cells was quantified using a haemocytometer. For the determination of the minimum inhibitory concentration, cell density was adjusted to 10^8 cells/mL with 20% liquid LB medium.

[4] = tested on: A. fumigatus (MFIG001); test: Minimum inhibitory concentration, A. fumigatus; assay type: cell-based, Aspergillus fumigatus; settings: 5 × 10^5, 10% Vogel's
Method: Aspergillus fumigatus strains were grown on Sabouraud dextrose agar (SAB agar) at 37° C. for 3 days. Conidia were collected in phosphate-buffered saline supplemented with 0.1% tween-20 (PBST) by gently scraping a spatula over the fungal colony surface. The spore solutions were then passed through autoclaved Miracloth to remove any hyphal residues and stored at 4° C. The spores were counted and the concentrations was determined in the same was as described for N. crassa.

[5] = tested on: F. oxysporum; test: Minimum inhibitory concentration, F. oxysporum; assay type: cell-based, Fusarium oxysporum; settings: 5 × 10^5, 10% Vogel's
Method: F. oxysporum was grown in liquid potato dextrose broth (PDB) at 28° C. with shaking (170 rpm) for 5 days. The suspension was filtered through folded Miracloth (4 layers) and centrifuged for 10 min at RT. The supernatant was discard and the pellet was resuspend in 1.5 mL of sterile dH2O and quantified.

[6] = tested on: C. albican; assay type: cell-based
Method: (§1) Candida strains used were grown on SAB agar at 37° C. for 3 days, and the Cryptococcus strain was grown on SAB agar at 37° C. for 6 days. Cells were harvest using sterile inoculation loop by taking a single colony and resuspending in phosphate-buffered saline supplemented with 0.1% tween-20 (PBST). The concentration of cells was then quantified with a haemocytometer. For the determination of the minimum inhibitory concentration, cell density was adjusted to 10^6 cells/mL with 20% liquid Vogel's medium.

[7] = tested on: C. auris; assay type: cell-based
Method: as §1

[8] = tested on: C. glabrata (NCPF 3309); assay type: cell-based
Method: as §1

[9] = tested on: C. inconspicua (ATCC 16783); assay type: cell-based
Method: as §1

[10] = tested on: C. krusei (ATCC 6258); assay type: cell-based
Method: as §1

[11] = Viability of reconstructed cornea-like epithelium (eye irritation model); assay type: cell-based; settings: human, reconstructed cornea-like epithelium (RhCE, EpiOcular™)
Method: (§2) FIG. 4a is a graph of the viability reconstructed cornea-like epithelium (RhCE, EpiOcular™) after incubation with MFIGA001. NC=Negative Control; PC=Positive Control. FIG. 4b is a graph of the viability reconstructed cornea-like epithelium (RhCE, EpiOcular™) after incubation with 10 µM of MFIGA001a and MFIGAF001b. NC=Negative Control; PC=Positive Control; A2=MFIGAF001a; and B1=MFIGAF001b.
(§3) MFIGAF001 was also assessed independently by a CRO (Evotec) in an OECD compliant reconstructed cornea-like epithelial cell model (RhCE, EpiOcular™).

[12] = tested on: reconstructed cornea-like epithelium (RhCE, EpiOcular™); test: as above; assay type: cell-based
Method: as §2, §3

[13] = tested on: A. fumigatus; test: Live cell imaging of A. fumigatus in co-cultures with A549; assay type: cell-based, Aspergillus fumigatus; settings: 2.5 µM, 10 min after addition, 37° C. in RPMI

Question: For `N=C(N)NCCC[C@@H]1NC(=O)CNC(=O)[C@H](Cc2c[nH]c3ccccc23)NC(=O)[C@H](Cc2ccccc2)NC(=O)[C@H](Cc2c[nH]c3ccccc23)NC(=O)[C@@H](Cc2ccccc2)NC(=O)[C@H](CCCCN)NC(=O)[C@H](CCCCN)NC1=O` [MFIGAF001, Cyclo(Arg-Lys-Lys-phe-Trp-Phe-Trp-Gly)] (HELM PEPTIDE1{F.W.G.R.K.K.[dF].W}$PEPTIDE1,PEPTIDE1,1:R1-8:R2$$$V2.0), which “IC50 Aspergillus fumigatus” value ([1]; 24 h) is on record?
Answer: The value was 1.4 mg/L (≈ 1.23 µM).

Question: And the “IC99 Aspergillus fumigatus” value ([1]; Conidia (10% Vogel's), 37° C., 24 h)?
Answer: Its value is 5.7 mg/L.

Question: What about the “IC50 value against major pathogenic fungi (in words)” value ([1]; various fungi, including Aspergillus fumigatus and Fusarium oxysporum) of the same compound?
Answer: Its value is “sub-micromolar”.

Question: And the “IC50 Fusarium oxysporum” value [2]?
Answer: Its value is 1.9 mg/L (≈ 1.67 µM).

Question: What about the “Antibacterial activity against Staphylococcus aureus” value [3] of the same compound?
Answer: The value was “Antibacterial activity”.

Question: And the MIC [3]?
Answer: Its MIC is 15.6 µM (≈ 17.7 µg/mL).

Question: And the MIC [4]?
Answer: Its MIC is 5 µM (≈ 5.68 µg/mL).

Question: And the MIC [5]?
Answer: The MIC was 6.25 µM (≈ 7.1 µg/mL).

Question: What about the MIC [6] of the same compound?
Answer: Its MIC is 2 µM (≈ 2.27 µg/mL).

Question: And the MIC [7]?
Answer: Its MIC is 2 µM (≈ 2.27 µg/mL).

Question: And the MIC [8]?
Answer: Its MIC is 3.9 µM (≈ 4.43 µg/mL).

Question: And the MIC [9]?
Answer: Its MIC is 2 µM (≈ 2.27 µg/mL).

Question: What about the MIC [10] of the same compound?
Answer: Its MIC is 3.9 µM (≈ 4.43 µg/mL).

Question: What about the viability at 100 µg/mL [11] of the same compound?
Answer: Its viability at 100 µg/mL is 87.3%.

Question: And the viability at 200 µg/mL [11]?
Answer: Its viability at 200 µg/mL is 87.2%.

Question: What about the viability at 400 µg/mL [11] of the same compound?
Answer: The viability at 400 µg/mL was 88.6%.

Question: And the viability at 500 µg/mL [11]?
Answer: Its viability at 500 µg/mL is 93.7%.

Question: And the “Toxicity, reconstructed cornea-like epithelium (FIG. 4)” value [12]?
Answer: The value was “no obvious toxicity”.

Question: What about the “Selective labelling of A. fumigatus over A549” value [13] of the same compound?
Answer: Its value is “selectively labels A. fumigatus”.
